Columns and labels:
[1] = test system: Macrophages isolated from mice peritoneum; test: Formation of cholesteryl ester and lipid droplet in mouse intraperitoneal macrophages ([1-14C]oleic acid incorporation, TLC); format: cell-based; settings: Macrophage, mouse peritoneal macrophages, liposome + [1-14C]oleic acid
Source text: Inhibitory action of FKA-25 substance of the present invention against intraperitoneal formation of cholesteryl ester and lipid droplet in mice is explained as follows.
Formation of cholesteryl ester and lipid droplet in mice in the intraperitoneal macrophage was examined according to the method of Namatame et al. (J. Biochem. 125, 319-327, 1999).
Macrophages isolated from mice peritoneum were suspended in Dulbecco modified Eagle's medium containing 6.8% lipoprotein deficient serum (6.8% LPDS-DMEM) 2.0×10^6 cells/ml, and plated each 0.25 ml into 48 well microplate (Corning Inc.) or slide chamber (Nunc Inc.).
The plate was incubated in 5% carbon dioxide incubator at 37° C. for 2 hours, then cells without attachment were removed by washing with Hank's solution. After washing, cells were incubated with 6.8% LPDS-DMEM for 1 hour, and FKA-25 substance (2.5 μl methanol), liposome (a composition consisting of phosphatidylcholine/phosphatidylserine/dicetylphosphate/cholesterol=10:10:2:15 (n mol) in 0.3 M glucose 10 μl) and [1-^14C]oleic acid (5 μl, 0.05 μCi, 1 nmol) were added, then incubated for 14 hours.
Cultured supernatant was removed off and intracellular neutral lipid was extracted twice by adding hexane 0.6 ml and isopropanol 0.4 ml. […] The separated [^14C]cholesteryl oleate and [^14C]triacylglycerol were quantitatively measured by using radio scanner (Ambis Inc., the U.S.). […]

[2] = Physico-chemical properties: solubility in solvents, acidity/basicity; format: physicochemical
Source text: Physico-chemical properties of FKA-25 substance of the present invention are as follows.

SMILES: CC(C)=CCc1c(C(O)C2OC2(C)C)ccc2[nH]c3c(c12)CC1CCC2(O)C(C)(C)C(=O)CCC2(C)C31C (centres unmarked) [FKA-25 substance]
- inhibition at 3.2 µM ([1]; at 3.2 μM, 14 hours, read-out: inhibition of the formation of triacylglycerol): ~50%
- IC50 ([1]; incubated for 14 hours, read-out: IC50, inhibition of the formation of [14C]cholesteryl oleate): 4 µM
- Differentiation from acidity, neutrality and basicity [2]: weak basic substance
- Solubility in solvents ([2]; in methanol, acetone, chloroform and ethyl acetate): Soluble
- Solubility in solvents ([2]; in water and hexane): slightly soluble
